Test results reported in patent publication US20230278972A1, “SUBSTITUTED HALOALKYL SULFONANILIDE HERBICIDES” (FMC Corporation, priority 2020, published 2023).

What was measured:
Assay type in all cases: in vivo
[1] = system: barnyardgrass (Echinochloa crus-galli); assay: Test A preemergence, barnyardgrass; settings: Preemergence; for Plant response rating, Barnyardgrass: 31 g ai/ha, visual injury, 0 to 100 scale (0 no effect, 100 complete control), approx. 10 days; for Barnyardgrass plant response rating: 125 g ai/ha, visual injury on 0 to 100 scale (0 no effect, 100 complete control), approximately 10 days
Summary of the method: (§1)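 Seeds are sown in loam mixed with sand and sprayed on the soil surface right after planting for the preemergence test. Postemergence pots are sprayed once seedlings reach 2 to 10 cm at the one- to two-leaf stage. The same surfactant-containing, non-phytotoxic solvent formulation serves both.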

kochia (Bassia scoparia) [2] = assay: Test A preemergence, kochia; settings: Preemergence; for Plant response rating, Kochia: 31 g ai/ha, visual injury, 0 to 100 scale (0 no effect, 100 complete control), approx. 10 days; for Kochia plant response rating: 125 g ai/ha, visual injury on 0 to 100 scale (0 no effect, 100 complete control), approximately 10 days
Summary of the method: as §1

[3] = system: ragweed (common ragweed, Ambrosia artemisiifolia); assay: Test A preemergence, ragweed; settings: Preemergence; for Plant response rating, Ragweed: 31 g ai/ha, visual injury, 0 to 100 scale (0 no effect, 100 complete control), approx. 10 days; for Ragweed plant response rating: 125 g ai/ha, visual injury on 0 to 100 scale (0 no effect, 100 complete control), approximately 10 days
Summary of the method: as §1

[4] = system: Ryegrass, Italian (Italian ryegrass, Lolium multiflorum); assay: Test A preemergence, Ryegrass, Italian; settings: Preemergence; for Plant response rating, Ryegrass, Italian: 31 g ai/ha, visual injury, 0 to 100 scale (0 no effect, 100 complete control), approx. 10 days; for Ryegrass, Italian plant response rating: 125 g ai/ha, visual injury on 0 to 100 scale (0 no effect, 100 complete control), approximately 10 days
Summary of the method: as §1

[5] = system: Foxtail, Giant (giant foxtail, Setaria faberi); assay: Test A preemergence, Foxtail, Giant; settings: Preemergence; for Plant response rating, Foxtail, Giant: 31 g ai/ha, visual injury, 0 to 100 scale (0 no effect, 100 complete control), approx. 10 days; for Foxtail, Giant plant response rating: 125 g ai/ha, visual injury on 0 to 100 scale (0 no effect, 100 complete control), approximately 10 days
Summary of the method: as §1

[6] = system: pigweed (Amaranthus retroflexus); assay: Test A preemergence, pigweed; settings: for Plant response rating, Pigweed: 31 g ai/ha, visual injury, 0 to 100 scale (0 no effect, 100 complete control), approx. 10 days; for Pigweed plant response rating: 125 g ai/ha, visual injury on 0 to 100 scale (0 no effect, 100 complete control), approximately 10 days
Summary of the method: (§2)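 Test chemicals, formulated in a non-phytotoxic solvent mixture with surfactant, were sprayed postemergence on plants 2 to 10 cm tall at the one- to two-leaf stage. Preemergence treatment was a directed soil spray onto freshly seeded pots. Both used a loam soil and sand blend.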

[7] = system: barnyardgrass (Echinochloa crus-galli); assay: Test A postemergence, barnyardgrass; settings: Postemergence
Summary of the method: as §2

kochia (Bassia scoparia) [8] = assay: Test A postemergence, kochia; settings: Postemergence
Summary of the method: as §1

[9] = system: ragweed (common ragweed, Ambrosia artemisiifolia); assay: Test A postemergence, ragweed; settings: Postemergence
Summary of the method: as §1

[10] = system: Ryegrass, Italian (Italian ryegrass, Lolium multiflorum); assay: Test A postemergence, Ryegrass, Italian; settings: Postemergence
Summary of the method: as §1

[11] = system: Foxtail, Giant (giant foxtail, Setaria faberi); assay: Test A postemergence, Foxtail, Giant; settings: Postemergence
Summary of the method: as §1

[12] = system: pigweed (Amaranthus retroflexus); assay: Test A postemergence, pigweed; settings: Postemergence
Summary of the method: as §1

[13] = system: wheat (Triticum aestivum); assay: Test A postemergence, wheat; settings: Postemergence
Summary of the method: as §2

corn (Zea mays) = assay: Test A postemergence, corn; settings: Postemergence
Summary of the method: as §1

[14] = system: blackgrass (Alopecurus myosuroides); assay: Test A postemergence, blackgrass; settings: Postemergence
Summary of the method: as §1

[15] = system: galium (catchweed bedstraw, Galium aparine); assay: Test A postemergence, galium; settings: Postemergence
Summary of the method: as §2

[16] = 31 g ai/ha, visual injury on 0 to 100 scale (0 no effect, 100 complete control), approx. 10 days
[17] = 125 g ai/ha, 0 to 100 scale (0 no effect, 100 complete control)

SMILES	Plant response rating, Barnyardgrass [1]	Barnyardgrass plant response rating [1]	Plant response rating, Kochia (kochia (Bassia scoparia) [2])	Kochia plant response rating (kochia (Bassia scoparia) [2])	Plant response rating, Ragweed [3]	Ragweed plant response rating [3]	Plant response rating, Ryegrass, Italian [4]	Ryegrass, Italian plant response rating [4]	Plant response rating, Foxtail, Giant [5]	Foxtail, Giant plant response rating [5]	Plant response rating, Pigweed [6]	Pigweed plant response rating [6]	Plant response rating, Barnyardgrass [7, 16]	Plant response rating, Barnyardgrass [7, 17]	Plant response rating, Kochia (kochia (Bassia scoparia) [8]; [16])	Plant response rating, Kochia (kochia (Bassia scoparia) [8]; [17])	Plant response rating, Ragweed [9, 16]	Plant response rating, Ragweed [9, 17]	Plant response rating, Ryegrass, Italian [10, 16]	Plant response rating, Ryegrass, Italian [10, 17]	other results
Cc1cc(Cl)c(NS(=O)(=O)C(F)(F)F)cc1C(=O)N1CCOCC1(C)C [Compound 153]	0	70	60	80	40	60	30	70	40	90	80	90	10	50	0	10	30	70	30	80	Plant response rating, Foxtail, Giant [11, 16]: 10; Plant response rating, Foxtail, Giant [11, 17]: 20; Plant response rating, Pigweed [12, 16]: 0; Plant response rating, Pigweed [12, 17]: 30; Plant response rating, Wheat [13, 16]: 0; Plant response rating, Wheat [13, 17]: 30; Plant response rating, Corn (corn (Zea mays); [16]): 0; Plant response rating, Corn (corn (Zea mays); [17]): 20; Plant response rating, Blackgrass [14, 16]: 0; Plant response rating, Blackgrass [14, 17]: 50; Plant response rating, Galium [15, 16]: 60; Plant response rating, Galium [15, 17]: 70
CCOC1CCCN(C(=O)c2cc(NS(=O)(=O)C(F)(F)F)c(C)cc2C)C1 (centres unmarked) [Compound 154]	0	50	0	40	50	80	20	70	60	90	20	100	30	70	10	30	0	20	0	0	Plant response rating, Foxtail, Giant [11, 16]: 20; Plant response rating, Foxtail, Giant [11, 17]: 20; Plant response rating, Pigweed [12, 16]: 40; Plant response rating, Pigweed [12, 17]: 60; Plant response rating, Wheat [13, 16]: 30; Plant response rating, Wheat [13, 17]: 70; Plant response rating, Corn (corn (Zea mays); [16]): 0; Plant response rating, Corn (corn (Zea mays); [17]): 10; Plant response rating, Blackgrass [14, 16]: 0; Plant response rating, Blackgrass [14, 17]: 20; Plant response rating, Galium [15, 16]: 50; Plant response rating, Galium [15, 17]: 80
Cc1cc(C)c(C(=O)N2CCCC(F)C2)cc1NS(=O)(=O)C(F)(F)F (centres unmarked) [Compound 155]	50	90	30	40	90	80	80	80	50	80	90	100	90	90	20	60	60	80	40	90	Plant response rating, Foxtail, Giant [11, 16]: 20; Plant response rating, Foxtail, Giant [11, 17]: 30; Plant response rating, Pigweed [12, 16]: 80; Plant response rating, Pigweed [12, 17]: 90; Plant response rating, Wheat [13, 16]: 30; Plant response rating, Wheat [13, 17]: 60; Plant response rating, Corn (corn (Zea mays); [16]): 50; Plant response rating, Corn (corn (Zea mays); [17]): 90; Plant response rating, Blackgrass [14, 16]: 10; Plant response rating, Blackgrass [14, 17]: 30; Plant response rating, Galium [15, 16]: 80; Plant response rating, Galium [15, 17]: 90
Cc1cc(C)c(N2CC3(CCOCC3)OC2=O)cc1NS(=O)(=O)C(F)(F)F [Compound 156]	70	100	30	50	60	90	50	70	50	100	80	100	90	90	40	70	90	90	0	10	Plant response rating, Foxtail, Giant [11, 16]: 30; Plant response rating, Foxtail, Giant [11, 17]: 70; Plant response rating, Pigweed [12, 16]: 60; Plant response rating, Pigweed [12, 17]: 90; Plant response rating, Wheat [13, 16]: 30; Plant response rating, Wheat [13, 17]: 40; Plant response rating, Corn (corn (Zea mays); [16]): 0; Plant response rating, Corn (corn (Zea mays); [17]): 20; Plant response rating, Blackgrass [14, 16]: 0; Plant response rating, Blackgrass [14, 17]: 40; Plant response rating, Galium [15, 16]: 100; Plant response rating, Galium [15, 17]: 100
